The data set in a line: Sustained release evaluated by weight loss curves from TG/DTA. It is filed as physicochemical. As to conditions: conditions a): 30° C. to 40° C. at 5° C./min, then 40° C. for 30 minutes. The method, then: The sustained release of the sustained-release drug obtained in Example 4 was evaluated by the following method. Weight loss curves were drawn from TG curves obtained using a thermogravimetry/differential thermal analysis (TG/DTA) apparatus (PerkinElmer, STA 6000) under the following conditions: conditions a) the sustained-release drug is heated from 30° C. to 40° C. at 5° C./min, followed by keeping the drug isothermally at 40° C. for 30 minutes; and conditions b) the sustained-release drug is heated from 30° C. to 50° C. at 5° C./min, followed by keeping the drug isothermally at 50° C. for 30 minutes. FIG. 6(a) (conditions a) and FIG. 6(b) (conditions b) show the obtained weight loss curves.

`CC(C)[C@@H]1CC[C@@H](C)C[C@H]1O` [L-menthol]: the “release of medicinal ingredient (weight loss curve)” value is on record as “significant volatility”.
